The record followed here is BindingDB's records for doi:10.1016/j.bmcl.2009.06.075 (Pfizer, 2009).

The experiment can be described thus: Antagonist activity at human P2Y12 receptor assessed as inhibition of ADP-induced platelet-rich plasma aggregation by turbidimetric method.

Some results are limits rather than exact numbers.

A word on the IC50: it is the concentration at which inhibition is half-maximal. Consider `CCOC(=O)N1CCN(C(=O)[C@H](CCC(=O)O)NC(=O)c2cc(NCCO)cc(-c3ccccc3)n2)CC1` [(S)-5-(4-(ethoxycarbonyl)piperazin-1-yl)-4-(4-(2-hydroxyethylamino)-6-phenylpicolinamido)-5-oxopentanoic acid], for which the IC50 came to 8.1 µM. With `CCOC(=O)N1CCN(C(=O)[C@H](CCC(=O)O)NC(=O)c2cc(OCCOC)cc(-c3ccccc3)n2)CC1` [(S)-5-(4-(ethoxycarbonyl)piperazin-1-yl)-4-(4-(2-methoxyethoxy)-6-phenylpicolinamido)-5-oxopentanoic acid] the figure was 5.8 µM; with `CCOC(=O)N1CCN(C(=O)[C@H](CCC(=O)O)NC(=O)c2cc(NCCOC)cc(-c3ccccc3)n2)CC1` [(S)-5-(4-(ethoxycarbonyl)piperazin-1-yl)-4-(4-(2-methoxyethylamino)-6-phenylpicolinamido)-5-oxopentanoic acid], 14 µM.

Regarding `CCOC(=O)N1CCN(C(=O)[C@H](CCC(=O)O)NC(=O)c2cc(N(C)CCS(C)(=O)=O)cc(-c3ccccc3)n2)CC1` [(S)-5-(4-(ethoxycarbonyl)piperazin-1-yl)-4-(4-(methyl(2-(methylsulfonyl)ethyl)amino)-6-phenylpicolinamido)-5-oxopentanoic acid], the half-maximal inhibitory concentration (IC50) is 7.6 µM. With `CCOC(=O)N1CCN(C(=O)[C@H](CCC(=O)O)NC(=O)c2cc(OC)cc(-c3ccccc3)n2)CC1` [(S)-5-(4-(ethoxycarbonyl)piperazin-1-yl)-4-(4-methoxy-6-phenylpicolinamido)-5-oxopentanoic acid] the figure was 39 µM; with `CCOC(=O)N1CCN(C(=O)[C@H](CCC(=O)O)NC(=O)c2cc(OCC3CCNCC3)cc(-c3ccccc3)n2)CC1` [(S)-5-(4-(ethoxycarbonyl)piperazin-1-yl)-5-oxo-4-(6-phenyl-4-(piperidin-4-ylmethoxy)picolinamido)pentanoic acid], 4 µM. For the compound `CCOC(=O)N1CCN(C(=O)[C@H](CCC(=O)O)NC(=O)c2cc(NCC3CCNCC3)cc(-c3ccccc3)n2)CC1` [(S)-5-(4-(ethoxycarbonyl)piperazin-1-yl)-5-oxo-4-(6-phenyl-4-(piperidin-4-ylmethylamino)picolinamido)pentanoic acid], the IC50 worked out at 8.5 µM. With `CCOC(=O)N1CCN(C(=O)[C@H](CCC(=O)O)NC(=O)c2cc(OC3CCNCC3)cc(-c3ccccc3)n2)CC1` [(S)-5-(4-(ethoxycarbonyl)piperazin-1-yl)-5-oxo-4-(6-phenyl-4-(piperidin-4-yloxy)picolinamido)pentanoic acid] the figure was 1.9 µM; with `CCCNc1cc(C(=O)N[C@@H](CCC(=O)O)C(=O)N2CCN(C(=O)OCC)CC2)nc(-c2ccccc2)c1` [(S)-5-(4-(ethoxycarbonyl)piperazin-1-yl)-5-oxo-4-(6-phenyl-4-(propylamino)picolinamido)pentanoic acid], 28 µM; with `CCOC(=O)N1CCN(C(=O)[C@H](CCC(=O)O)NC(=O)c2cc(NC3CCOCC3)cc(-c3ccccc3)n2)CC1` [(S)-5-(4-(ethoxycarbonyl)piperazin-1-yl)-5-oxo-4-(6-phenyl-4-(tetrahydro-2H-pyran-4-ylamino)picolinamido)pentanoic acid], 21 µM. Then `CCCCCCCOC(=O)N1CCN(C(=O)[C@H](CCC(=O)O)NC(=O)c2cccc(-c3ccccc3)n2)CC1` [(S)-5-(4-(heptyloxycarbonyl)piperazin-1-yl)-5-oxo-4-(6-phenylpicolinamido)pentanoic acid], with 56 µM; and `CCCCCCOC(=O)N1CCN(C(=O)[C@H](CCC(=O)O)NC(=O)c2cc(N3CCC(COC)CC3)cc(-c3ccccc3)n2)CC1` [(S)-5-(4-(hexyloxycarbonyl)piperazin-1-yl)-4-(4-(4-(methoxymethyl)piperidin-1-yl)-6-phenylpicolinamido)-5-oxopentanoic acid], with 7.6 µM. With `CCCCCCOC(=O)N1CCN(C(=O)[C@H](CCC(=O)O)NC(=O)c2cc(N3CCC(O)CC3)cc(-c3ccccc3)n2)CC1` [(S)-5-(4-(hexyloxycarbonyl)piperazin-1-yl)-4-(4-(4-hydroxypiperidin-1-yl)-6-phenylpicolinamido)-5-oxopentanoic acid] the figure was 6.4 µM. For `CCCCCCOC(=O)N1CCN(C(=O)[C@H](CCC(=O)O)NC(=O)c2cccc(-c3ccccc3)n2)CC1` [(S)-5-(4-(hexyloxycarbonyl)piperazin-1-yl)-5-oxo-4-(6-phenylpicolinamido)pentanoic acid], the half-inhibitory concentration (IC50) turned out to be 19 µM.

With `COCCOc1cc(C(=O)N[C@@H](CCC(=O)O)C(=O)N2CCN(C(=O)OC(C)C)CC2)nc(-c2ccccc2)c1` [(S)-5-(4-(isopropoxycarbonyl)piperazin-1-yl)-4-(4-(2-methoxyethoxy)-6-phenylpicolinamido)-5-oxopentanoic acid], the concentration for half-maximal inhibition (IC50) is 20.1 µM. As to `COC(=O)N1CCN(C(=O)[C@H](CCC(=O)O)NC(=O)c2cccc(-c3ccccc3)n2)CC1` [(S)-5-(4-(methoxycarbonyl)piperazin-1-yl)-5-oxo-4-(6-phenylpicolinamido)pentanoic acid], the half-maximal inhibitory concentration (IC50) is above 100 µM. With `CCCCCOC(=O)N1CCN(C(=O)[C@H](CCC(=O)O)NC(=O)c2cccc(-c3ccccc3)n2)CC1` [(S)-5-oxo-5-(4-(pentyloxycarbonyl)piperazin-1-yl)-4-(6-phenylpicolinamido)pentanoic acid] the figure was 15 µM.
